Tests used:
Assay in all cases: Test C postemergence
Type in all cases: in vivo
Conditions in all cases: scale 0 to 100, 0 no effect, 100 complete control
Kochia (Kochia scoparia) = system: Kochia (Kochia scoparia)
Summary of the method: (§1)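 Herbicidal effect, applied preemergence to sown seeds or postemergence to 1- to 4-leaf plants, was scored visually 13 to 15 d after application, 0 to 100 versus controls.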

[1] = system: barnyardgrass (Echinochloa crus-galli)
Summary of the method: as §1

[2] = system: blackgrass (Alopecurus myosuroides)
Summary of the method: as §1

[3] = system: chickweed (common chickweed, Stellaria media)
Summary of the method: as §1

corn (Zea mays) = system: corn (Zea mays)
Summary of the method: as §1

[4] = system: crabgrass, large (large crabgrass, Digitaria sanguinalis)
Summary of the method: as §1

[5] = system: johnsongrass (Sorghum halepense)
Summary of the method: as §1

[6] = system: lambsquarters (Chenopodium album)
Summary of the method: as §1

[7] = system: morningglory (Ipomoea coccinea)
Summary of the method: as §1

[8] = system: nutsedge, yellow (yellow nutsedge, Cyperus esculentus)
Summary of the method: as §1

[9] = system: oat, wild (wild oat, Avena fatua)
Summary of the method: as §1

[10] = system: oilseed rape (Brassica napus)
Summary of the method: as §1

[11] = system: pigweed (Amaranthus retroflexus)
Summary of the method: as §1

[12] = system: ragweed (common ragweed, Ambrosia elatior)
Summary of the method: as §1

soybean (Glycine max) = system: soybean (Glycine max)
Summary of the method: as §1

[13] = system: velvetleaf (Abutilon theophrasti)
Summary of the method: as §1

[14] = system: waterhemp (common waterhemp, Amaranthus rudis)
Summary of the method: as §1

[15] = system: wheat (winter wheat, Triticum aestivum)
Summary of the method: as §1

O=C1NCC(c2ccc3c(c2)OC(F)(F)O3)C1C(=O)Nc1cccc(F)c1F (centres unmarked) [Compound 635]
20: Plant response rating, Kochia (Kochia (Kochia scoparia); 62 g ai/ha) | Plant response rating, Crabgrass, Large ([4]; 31 g ai/ha)
70: Plant response rating, Crabgrass, Large ([4]; 250 g ai/ha) | Plant response rating, Ragweed ([12]; 125 g ai/ha) | Plant response rating, Waterhemp ([14]; 250 g ai/ha)
40: Plant response rating, Kochia (Kochia (Kochia scoparia); 31 g ai/ha) | Plant response rating, Blackgrass ([2]; 250 g ai/ha) | Plant response rating, Corn (corn (Zea mays); 250 g ai/ha) | Plant response rating, Morningglory ([7]; 62 g ai/ha)
25: Plant response rating, Morningglory ([7]; 31 g ai/ha) | Plant response rating, Ragweed ([12]; 31 g ai/ha)
45: Plant response rating, Morningglory ([7]; 125 g ai/ha) | Plant response rating, Morningglory ([7]; 250 g ai/ha) | Plant response rating, Oilseed Rape ([10]; 62 g ai/ha)
50: Plant response rating, Kochia (Kochia (Kochia scoparia); 125 g ai/ha) | Plant response rating, Crabgrass, Large ([4]; 125 g ai/ha) | Plant response rating, Oilseed Rape ([10]; 31 g ai/ha)
90: Plant response rating, Chickweed ([3]; 250 g ai/ha)
10: Plant response rating, Barnyardgrass ([1]; 62 g ai/ha) | Plant response rating, Oilseed Rape ([10]; 125 g ai/ha) | Plant response rating, Soybean (soybean (Glycine max); 250 g ai/ha) | Plant response rating, Velvetleaf ([13]; 125 g ai/ha)
55: Plant response rating, Waterhemp ([14]; 125 g ai/ha)
85: Plant response rating, Chickweed ([3]; 62 g ai/ha) | Plant response rating, Chickweed ([3]; 125 g ai/ha) | Plant response rating, Lambsquarters ([6]; 250 g ai/ha)
80: Plant response rating, Chickweed ([3]; 31 g ai/ha) | Plant response rating, Lambsquarters ([6]; 62 g ai/ha) | Plant response rating, Oilseed Rape ([10]; 250 g ai/ha) | Plant response rating, Ragweed ([12]; 250 g ai/ha)
65: Plant response rating, Barnyardgrass ([1]; 125 g ai/ha) | Plant response rating, Barnyardgrass ([1]; 250 g ai/ha) | Plant response rating, Pigweed ([11]; 31 g ai/ha)
75: Plant response rating, Lambsquarters ([6]; 31 g ai/ha) | Plant response rating, Lambsquarters ([6]; 125 g ai/ha) | Plant response rating, Pigweed ([11]; 125 g ai/ha) | Plant response rating, Pigweed ([11]; 250 g ai/ha)
60: Plant response rating, Kochia (Kochia (Kochia scoparia); 250 g ai/ha) | Plant response rating, Crabgrass, Large ([4]; 62 g ai/ha) | Plant response rating, Pigweed ([11]; 62 g ai/ha) | Plant response rating, Ragweed ([12]; 62 g ai/ha) | Plant response rating, Waterhemp ([14]; 62 g ai/ha)
5: Plant response rating, Blackgrass ([2]; 125 g ai/ha) | Plant response rating, Corn (corn (Zea mays); 125 g ai/ha) | Plant response rating, Johnsongrass ([5]; 125 g ai/ha) | Plant response rating, Johnsongrass ([5]; 250 g ai/ha) | Plant response rating, Oat, Wild ([9]; 250 g ai/ha) | Plant response rating, Soybean (soybean (Glycine max); 125 g ai/ha) | Plant response rating, Wheat ([15]; 250 g ai/ha)
0: Plant response rating, Barnyardgrass ([1]; 31 g ai/ha) | Plant response rating, Blackgrass ([2]; 31 g ai/ha) | Plant response rating, Blackgrass ([2]; 62 g ai/ha) | Plant response rating, Corn (corn (Zea mays); 31 g ai/ha) | Plant response rating, Corn (corn (Zea mays); 62 g ai/ha) | Plant response rating, Johnsongrass ([5]; 31 g ai/ha) | Plant response rating, Johnsongrass ([5]; 62 g ai/ha) | Plant response rating, Nutsedge, Yellow ([8]; 31 g ai/ha) | Plant response rating, Nutsedge, Yellow ([8]; 62 g ai/ha) | Plant response rating, Nutsedge, Yellow ([8]; 125 g ai/ha) | Plant response rating, Nutsedge, Yellow ([8]; 250 g ai/ha) | Plant response rating, Oat, Wild ([9]; 31 g ai/ha) | Plant response rating, Oat, Wild ([9]; 62 g ai/ha) | Plant response rating, Oat, Wild ([9]; 125 g ai/ha) | Plant response rating, Soybean (soybean (Glycine max); 31 g ai/ha) | Plant response rating, Soybean (soybean (Glycine max); 62 g ai/ha) | Plant response rating, Velvetleaf ([13]; 31 g ai/ha) | Plant response rating, Velvetleaf ([13]; 62 g ai/ha) | Plant response rating, Wheat ([15]; 31 g ai/ha) | Plant response rating, Wheat ([15]; 62 g ai/ha) | Plant response rating, Wheat ([15]; 125 g ai/ha)
30: Plant response rating, Velvetleaf ([13]; 250 g ai/ha)
35: Plant response rating, Waterhemp ([14]; 31 g ai/ha)

CN1CC(c2ccc(F)c(F)c2)C(C(=O)Nc2ccccc2C(F)(F)F)C1=O (centres unmarked) [Compound 641]
35: Plant response rating, Barnyardgrass ([1]; 125 g ai/ha) | Plant response rating, Morningglory ([7]; 125 g ai/ha)
50: Plant response rating, Chickweed ([3]; 125 g ai/ha) | Plant response rating, Crabgrass, Large ([4]; 62 g ai/ha) | Plant response rating, Pigweed ([11]; 250 g ai/ha) | Plant response rating, Velvetleaf ([13]; 250 g ai/ha)
0: Plant response rating, Kochia (Kochia (Kochia scoparia); 31 g ai/ha) | Plant response rating, Kochia (Kochia (Kochia scoparia); 62 g ai/ha) | Plant response rating, Kochia (Kochia (Kochia scoparia); 125 g ai/ha) | Plant response rating, Barnyardgrass ([1]; 31 g ai/ha) | Plant response rating, Blackgrass ([2]; 31 g ai/ha) | Plant response rating, Blackgrass ([2]; 62 g ai/ha) | Plant response rating, Blackgrass ([2]; 125 g ai/ha) | Plant response rating, Blackgrass ([2]; 250 g ai/ha) | Plant response rating, Chickweed ([3]; 31 g ai/ha) | Plant response rating, Chickweed ([3]; 62 g ai/ha) | Plant response rating, Corn (corn (Zea mays); 31 g ai/ha) | Plant response rating, Corn (corn (Zea mays); 62 g ai/ha) | Plant response rating, Corn (corn (Zea mays); 125 g ai/ha) | Plant response rating, Johnsongrass ([5]; 31 g ai/ha) | Plant response rating, Johnsongrass ([5]; 62 g ai/ha) | Plant response rating, Johnsongrass ([5]; 125 g ai/ha) | Plant response rating, Johnsongrass ([5]; 250 g ai/ha) | Plant response rating, Morningglory ([7]; 31 g ai/ha) | Plant response rating, Nutsedge, Yellow ([8]; 31 g ai/ha) | Plant response rating, Nutsedge, Yellow ([8]; 62 g ai/ha) | Plant response rating, Nutsedge, Yellow ([8]; 125 g ai/ha) | Plant response rating, Nutsedge, Yellow ([8]; 250 g ai/ha) | Plant response rating, Oat, Wild ([9]; 31 g ai/ha) | Plant response rating, Oat, Wild ([9]; 62 g ai/ha) | Plant response rating, Oat, Wild ([9]; 125 g ai/ha) | Plant response rating, Oat, Wild ([9]; 250 g ai/ha) | Plant response rating, Pigweed ([11]; 31 g ai/ha) | Plant response rating, Pigweed ([11]; 62 g ai/ha) | Plant response rating, Ragweed ([12]; 31 g ai/ha) | Plant response rating, Ragweed ([12]; 62 g ai/ha) | Plant response rating, Soybean (soybean (Glycine max); 31 g ai/ha) | Plant response rating, Soybean (soybean (Glycine max); 62 g ai/ha) | Plant response rating, Wheat ([15]; 31 g ai/ha) | Plant response rating, Wheat ([15]; 62 g ai/ha) | Plant response rating, Wheat ([15]; 125 g ai/ha) | Plant response rating, Wheat ([15]; 250 g ai/ha)
30: Plant response rating, Lambsquarters ([6]; 250 g ai/ha) | Plant response rating, Ragweed ([12]; 250 g ai/ha) | Plant response rating, Waterhemp ([14]; 250 g ai/ha)
5: Plant response rating, Lambsquarters ([6]; 31 g ai/ha) | Plant response rating, Lambsquarters ([6]; 125 g ai/ha) | Plant response rating, Soybean (soybean (Glycine max); 125 g ai/ha)
20: Plant response rating, Oilseed Rape ([10]; 31 g ai/ha)
55: Plant response rating, Chickweed ([3]; 250 g ai/ha) | Plant response rating, Oilseed Rape ([10]; 250 g ai/ha)
65: Plant response rating, Barnyardgrass ([1]; 250 g ai/ha)
15: Plant response rating, Lambsquarters ([6]; 62 g ai/ha) | Plant response rating, Morningglory ([7]; 62 g ai/ha) | Plant response rating, Soybean (soybean (Glycine max); 250 g ai/ha)
10: Plant response rating, Barnyardgrass ([1]; 62 g ai/ha) | Plant response rating, Corn (corn (Zea mays); 250 g ai/ha) | Plant response rating, Crabgrass, Large ([4]; 31 g ai/ha) | Plant response rating, Waterhemp ([14]; 31 g ai/ha) | Plant response rating, Waterhemp ([14]; 62 g ai/ha)
40: Plant response rating, Kochia (Kochia (Kochia scoparia); 250 g ai/ha) | Plant response rating, Morningglory ([7]; 250 g ai/ha) | Plant response rating, Ragweed ([12]; 125 g ai/ha) | Plant response rating, Velvetleaf ([13]; 31 g ai/ha) | Plant response rating, Velvetleaf ([13]; 62 g ai/ha)
45: Plant response rating, Oilseed Rape ([10]; 62 g ai/ha) | Plant response rating, Oilseed Rape ([10]; 125 g ai/ha)
70: Plant response rating, Crabgrass, Large ([4]; 125 g ai/ha) | Plant response rating, Crabgrass, Large ([4]; 250 g ai/ha)
25: Plant response rating, Pigweed ([11]; 125 g ai/ha) | Plant response rating, Waterhemp ([14]; 125 g ai/ha)

Source: US12077503B2, “Substituted cyclic amides and their use as herbicides” (FMC CORPORATION, priority 2015, dated 2024)
